Measured values: the CheMixHub viscosity set
± gives the uncertainty stated by the source.

Experiment: xn = mol fraction of the nth substance listed

CCC(C)c1ccccc1 (stereo not given) + CCCCCCCCCCCC
viscosity [mPa·s], 102 kPa
Conditions	x1 = 0.1008	x1 = 0.2007	x1 = 0.2993	x1 = 0.4003	x1 = 0.4998	x1 = 0.62	x1 = 0.6996	x1 = 0.7999	x1 = 0.9004
293.15 K	1.41 ± 0.02	1.33 ± 0.02	1.26 ± 0.02	1.19 ± 0.02	1.131 ± 0.021	1.064 ± 0.021	1.027 ± 0.021	0.992 ± 0.021	0.959 ± 0.021
303.15 K	1.19 ± 0.02	1.128 ± 0.021	1.072 ± 0.021	1.02 ± 0.021	0.971 ± 0.021	0.923 ± 0.021	0.896 ± 0.021	0.862 ± 0.021	0.835 ± 0.021
313.15 K	1.015 ± 0.021	0.973 ± 0.021	0.935 ± 0.021	0.893 ± 0.021	0.853 ± 0.021	0.812 ± 0.021	0.784 ± 0.021	0.755 ± 0.021	0.732 ± 0.021
323.15 K	0.888 ± 0.021	0.852 ± 0.021	0.817 ± 0.021	0.783 ± 0.021	0.751 ± 0.021	0.717 ± 0.021	0.694 ± 0.021	0.669 ± 0.021	0.649 ± 0.021

O=C(O)c1ccccc1O + O
viscosity [mPa·s], 100 kPa
Conditions	x1 = 7.22e-05	x1 = 0.000108	x1 = 0.000143	x1 = 0.00018	x1 = 0.0002158	x1 = 0.0002516
293.15 K	1.008 ± 0.06	1.011 ± 0.06	1.013 ± 0.06	1.015 ± 0.06	1.017 ± 0.06	1.019 ± 0.06
298.15 K	0.896 ± 0.06	0.899 ± 0.06	0.901 ± 0.06	0.902 ± 0.06	0.904 ± 0.06	0.906 ± 0.06
303.15 K	0.803 ± 0.06	0.806 ± 0.06	0.807 ± 0.06	0.809 ± 0.06	0.81 ± 0.06	0.812 ± 0.06
308.15 K	0.725 ± 0.06	0.727 ± 0.06	0.729 ± 0.06	0.73 ± 0.06	0.732 ± 0.06	0.733 ± 0.06
313.15 K	0.659 ± 0.06	0.661 ± 0.06	0.662 ± 0.06	0.664 ± 0.06	0.665 ± 0.06	0.666 ± 0.06

CCCCN(CCO)CCO + O
viscosity [mPa·s], 101 kPa
Conditions	303.15 K	308.15 K	313.15 K	318.15 K	323.15 K
x1 = 0.0501	3.144 ± 0.13	2.695 ± 0.12	2.335 ± 0.12	2.041 ± 0.11	1.795 ± 0.11
x1 = 0.0999	6.924 ± 0.2	5.705 ± 0.17	4.763 ± 0.16	4.027 ± 0.14	3.434 ± 0.13
x1 = 0.15	11.35 ± 0.3	9.112 ± 0.25	7.428 ± 0.21	6.13 ± 0.18	5.123 ± 0.16
x1 = 0.2	15.8 ± 0.39	12.47 ± 0.32	10.01 ± 0.26	8.116 ± 0.22	6.674 ± 0.19
x1 = 0.3013	25.17 ± 0.58	19.3 ± 0.46	15.07 ± 0.36	11.97 ± 0.29	9.604 ± 0.25
x1 = 0.3988	32.99 ± 0.71	24.94 ± 0.57	19.22 ± 0.43	15.07 ± 0.34	11.96 ± 0.29
x1 = 0.4994	39.06 ± 0.79	29.14 ± 0.63	22.33 ± 0.47	17.44 ± 0.37	13.76 ± 0.31
x1 = 0.6027	42.39 ± 0.81	31.62 ± 0.64	24.2 ± 0.48	18.83 ± 0.38	14.84 ± 0.31
x1 = 0.7058	43.85 ± 0.78	32.83 ± 0.62	25.16 ± 0.47	19.65 ± 0.37	15.51 ± 0.31
x1 = 0.8009	43.72 ± 0.73	32.88 ± 0.59	25.37 ± 0.44	19.83 ± 0.35	15.71 ± 0.29
x1 = 0.899	42.96 ± 0.66	32.66 ± 0.54	25.3 ± 0.41	19.86 ± 0.32	15.82 ± 0.27

CCC(=O)O + CCCCN(CCCC)CCCC
viscosity [mPa·s], 101.33 kPa
Conditions	x1 = 0.1	x1 = 0.2	x1 = 0.3	x1 = 0.4	x1 = 0.5	x1 = 0.6	x1 = 0.7	x1 = 0.8	x1 = 0.9
293.15 K	1.867 ± 0.029	–	–	–	6.422 ± 0.12	12.71 ± 0.22	26.1 ± 0.17	23.66 ± 0.14	6.57 ± 0.05
298.15 K	1.389 ± 0.018	1.676 ± 0.026	2.303 ± 0.05	3.571 ± 0.055	5.447 ± 0.057	10.24 ± 0.12	20.63 ± 0.23	19.13 ± 0.2	5.91 ± 0.05
303.15 K	1.228 ± 0.013	1.495 ± 0.015	1.923 ± 0.02	3.107 ± 0.031	4.591 ± 0.048	8.37 ± 0.09	16.9 ± 0.19	15.79 ± 0.15	4.93 ± 0.04
308.15 K	1.112 ± 0.011	1.342 ± 0.013	1.728 ± 0.017	2.693 ± 0.027	3.887 ± 0.04	7.04 ± 0.08	13.12 ± 0.15	13.19 ± 0.13	4.33 ± 0.03
313.15 K	1.015 ± 0.01	1.212 ± 0.012	1.523 ± 0.015	2.359 ± 0.023	3.372 ± 0.033	5.67 ± 0.06	10.81 ± 0.11	10.94 ± 0.1	3.79 ± 0.03
318.15 K	0.938 ± 0.009	1.096 ± 0.011	1.361 ± 0.013	2.071 ± 0.02	2.954 ± 0.028	5.03 ± 0.05	8.92 ± 0.09	9.32 ± 0.08	3.39 ± 0.03
323.15 K	0.878 ± 0.009	0.994 ± 0.01	1.245 ± 0.012	1.839 ± 0.017	2.557 ± 0.025	4.35 ± 0.04	7.55 ± 0.07	8.06 ± 0.07	3.04 ± 0.02

ClCCCCCl + CCCCO
viscosity [mPa·s], 101 kPa
Conditions	x1 = 0.0988	x1 = 0.1965	x1 = 0.2919	x1 = 0.3955	x1 = 0.4961	x1 = 0.5978	x1 = 0.6964	x1 = 0.7945	x1 = 0.8982
298.15 K	2.129 ± 0.018	1.827 ± 0.016	1.61 ± 0.014	1.455 ± 0.013	1.338 ± 0.012	1.265 ± 0.011	1.221 ± 0.011	1.204 ± 0.011	1.213 ± 0.011
313.15 K	1.485 ± 0.014	1.3 ± 0.012	1.17 ± 0.011	1.077 ± 0.01	1.012 ± 0.0096	0.9721 ± 0.0093	0.9502 ± 0.0091	0.9443 ± 0.0092	0.9674 ± 0.0095

CC(=O)CCC(=O)O + CCCC[N+](CCCC)(CCCC)CCCC.[Br-]
viscosity [mPa·s], 101 kPa
Conditions	293.15 K	298.15 K	303.15 K	308.15 K	313.15 K	318.15 K	323.15 K
x1 = 0.75	376.5 ± 20	–	175.1 ± 8.3	–	93.88 ± 4.1	–	53.38 ± 2.2
x2 = 0.25	–	261.9 ± 15	169.6 ± 7.2	118.6 ± 3.7	89.13 ± 2	64.47 ± 0.95	46.13 ± 0.67

CCC(=O)O + CCO
308.15 K, 101 kPa
Conditions	viscosity [mPa·s]
x1 = 0.0674	1.035 ± 0.056
x1 = 0.1373	1.062 ± 0.056
x1 = 0.2156	1.095 ± 0.055
x1 = 0.2983	1.125 ± 0.055
x1 = 0.3898	1.151 ± 0.054
x1 = 0.4885	1.167 ± 0.053
x1 = 0.5987	1.16 ± 0.053
x1 = 0.7173	1.119 ± 0.052
x1 = 0.7834	1.081 ± 0.051
x1 = 0.8532	1.043 ± 0.051
x1 = 0.9225	0.9581 ± 0.051
